Measured values reported in patent US12660819B2, “Herbicidal derivatives” (SYNGENTA CROP PROTECTION AG, priority 2020, dated 2026).

Columns and labels:
Type in all cases: in vivo
[1] = tested on: Echinochloa crus-galli (ECHCG); assay: Pre-emergence Test (glasshouse, percentage damage to the plant); details: 1000 g/ha unless otherwise stated; for percentage damage to the plant, ECHCG (five-point scale): Echinochloa crus-galli
[2] = tested on: Amaranthus retoflexus (AMARE); assay: as above; details: 1000 g/ha unless otherwise stated; for percentage damage to the plant, AMARE (five-point scale): Amaranthus retoflexus
Zea mays (ZEAMX) [3] = assay: as above; details: 1000 g/ha unless otherwise stated; for percentage damage to the plant, ZEAMX (five-point scale): Zea mays
[4] = tested on: Ipomoea hederacea (IPOHE); assay: as above; details: 1000 g/ha unless otherwise stated; for percentage damage to the plant, IPOHE (five-point scale): Ipomoea hederacea
Setaria faberi (SETFA) [5] = assay: Post-emergence Test (glasshouse, percentage damage to the plant); details: 1000 g/ha unless otherwise stated, evaluated after 13 days; for SETFA, percentage damage caused to the plant (five-point scale): post-emergence
In short: (§1)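 Compound formulated in 50:50 acetone/water with 0.5% Tween 20 was diluted to an aqueous spray and applied at 1000 g/ha, unless otherwise stated, onto sown pots. Evaluation after 13 days gave percentage damage, banded into a 1–5 score.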

[6] = tested on: Ipomoea hederacea (IPOHE); assay: as above; details: 1000 g/ha unless otherwise stated, evaluated after 13 days; for IPOHE, percentage damage caused to the plant (five-point scale): post-emergence
In short: as §1

[7] = tested on: Amaranthus palmeri (AMAPA); assay: as above; details: 1000 g/ha unless otherwise stated, evaluated after 13 days; for AMAPA, percentage damage caused to the plant (five-point scale): post-emergence
In short: as §1

Zea mays (ZEAMX) [8] = assay: as above; details: 1000 g/ha unless otherwise stated, evaluated after 13 days; for ZEAMX, percentage damage caused to the plant (five-point scale): post-emergence
In short: as §1

[9] = tested on: Amaranthus retoflexus (AMARE); assay: as above; details: 1000 g/ha unless otherwise stated, evaluated after 13 days; for AMARE, percentage damage caused to the plant (five-point scale): post-emergence
In short: as §1

[10] = tested on: Amaranthus palmeri (AMAPA); assay: Pre-emergence Test (glasshouse, percentage damage to the plant); details: 1000 g/ha unless otherwise stated; for percentage damage to the plant, AMAPA (five-point scale): Amaranthus palmeri
Setaria faberi (SETFA) [11] = assay: as above; details: 1000 g/ha unless otherwise stated; for percentage damage to the plant, SETFA (five-point scale): Setaria faberi

SMILES | percentage damage to the plant, ECHCG (five-point scale) [1] | percentage damage to the plant, AMARE (five-point scale) [2] | percentage damage to the plant, ZEAMX (five-point scale) (Zea mays (ZEAMX) [3]) | percentage damage to the plant, IPOHE (five-point scale) [4] | SETFA, percentage damage caused to the plant (five-point scale) (Setaria faberi (SETFA) [5]) | IPOHE, percentage damage caused to the plant (five-point scale) [6] | AMAPA, percentage damage caused to the plant (five-point scale) [7] | ZEAMX, percentage damage caused to the plant (five-point scale) (Zea mays (ZEAMX) [8]) | AMARE, percentage damage caused to the plant (five-point scale) [9] | percentage damage to the plant, AMAPA (five-point scale) [10] | percentage damage to the plant, SETFA (five-point scale) (Setaria faberi (SETFA) [11]) | also measured
CCn1c(C)c(-c2cc(C)ccc2F)c(=O)c(C(=O)O)c1-c1ccc(Cl)c(Cl)c1 [Compound 231, 2-(3,4-dichlorophenyl)-1-ethyl-5-(2-fluoro-5-methyl-phenyl)-6-methyl-4-oxo-pyridine-3-carboxylic acid] | 2 (2=21-40%) | 3 (3=41-60%) | 0 | 0 | 3 (3=41-60%) | 3 (3=41-60%) | 5 (5=81-100%) | 1 (1=0-20%) | 5 (5=81-100%) | 4 (4=61-80%) | 4 (4=61-80%) | –
CCn1c(C)c(-c2cc(C)nn2C)c(=O)c(C(=O)O)c1-c1ccc(Cl)c(Cl)c1 [Compound 240, 2-(3,4-dichlorophenyl)-5-(2,5-dimethylpyrazol-3-yl)-1-ethyl-6-methyl-4-oxo-pyridine-3-carboxylic acid] | 3 (3=41-60%) | 0 | 0 | 1 (1=0-20%) | 4 (4=61-80%) | 4 (4=61-80%) | 4 (4=61-80%) | 1 (1=0-20%) | 3 (3=41-60%) | 0 | 5 (5=81-100%) | –
CCn1c(C)c(-c2ccc(Cl)cc2SC)c(=O)c(C(=O)O)c1-c1ccc(Cl)c(Cl)c1 [Compound 158, 5-(4-chloro-2-methylsulfanyl-phenyl)-2-(3,4-dichlorophenyl)-1-ethyl-6-methyl-4-oxo-pyridine-3-carboxylic acid] | – | – | – | – | – | – | – | – | – | – | – | percentage damage to the plant, ECHCG ([1]; five-point scale): 0; percentage damage to the plant, AMARE ([2]; five-point scale): 0; percentage damage to the plant, ZEAMX (Zea mays (ZEAMX) [3]; five-point scale): 0; percentage damage to the plant, IPOHE ([4]; five-point scale): 0; Post-emergence Test SETFA, percentage damage to the plant (five-point scale) (Setaria faberi (SETFA) [5]; post-emergence spray): 1 (1=0-20%); Post-emergence Test IPOHE, percentage damage to the plant (five-point scale) ([6]; post-emergence spray): 2 (2=21-40%); Post-emergence Test AMAPA, percentage damage to the plant (five-point scale) ([7]; post-emergence spray): 5 (5=81-100%); Post-emergence Test ZEAMX, percentage damage to the plant (five-point scale) (Zea mays (ZEAMX) [8]; post-emergence spray): 1 (1=0-20%); Post-emergence Test AMARE, percentage damage to the plant (five-point scale) ([9]; post-emergence spray): 4 (4=61-80%); percentage damage to the plant, AMAPA ([10]; five-point scale): 3 (3=41-60%); percentage damage to the plant, SETFA (Setaria faberi (SETFA) [11]; five-point scale): 0
CCn1c(C)c(-c2cccc(C)c2F)c(=O)c(C(=O)O)c1-c1ccc(Cl)c(Cl)c1 [Compound 228, 2-(3,4-dichlorophenyl)-1-ethyl-5-(2-fluoro-3-methyl-phenyl)-6-methyl-4-oxo-pyridine-3-carboxylic acid] | 5 (5=81-100%) | 2 (2=21-40%) | 2 (2=21-40%) | 3 (3=41-60%) | 3 (3=41-60%) | 3 (3=41-60%) | 5 (5=81-100%) | 2 (2=21-40%) | 4 (4=61-80%) | 4 (4=61-80%) | 5 (5=81-100%) | –
CCn1c(C)c(-c2cc(OC(F)(F)F)ccc2Cl)c(=O)c(C(=O)O)c1-c1ccc(Cl)c(Cl)c1 [Compound 224, 5-[2-chloro-5-(trifluoromethoxy)phenyl]-2-(3,4-dichlorophenyl)-1-ethyl-6-methyl-4-oxo-pyridine-3-carboxylic acid] | 5 (5=81-100%) | 3 (3=41-60%) | 2 (2=21-40%) | 2 (2=21-40%) | 5 (5=81-100%) | 2 (2=21-40%) | 5 (5=81-100%) | 3 (3=41-60%) | 5 (5=81-100%) | 4 (4=61-80%) | 5 (5=81-100%) | –
CCn1c(C)c(-c2cc(Cl)ccc2F)c(=O)c(C(=O)O)c1-c1ccc(Cl)c(Cl)c1 [Compound 229, 5-(5-chloro-2-fluoro-phenyl)-2-(3,4-dichlorophenyl)-1-ethyl-6-methyl-4-oxo-pyridine-3-carboxylic acid] | 0 | 4 (4=61-80%) | 0 | 1 (1=0-20%) | 1 (1=0-20%) | 3 (3=41-60%) | 5 (5=81-100%) | 1 (1=0-20%) | 5 (5=81-100%) | 4 (4=61-80%) | 1 (1=0-20%) | –
CCn1c(C)c(-c2cccc(Oc3ccccc3)c2)c(=O)c(C(=O)O)c1-c1ccc(Cl)c(Cl)c1 [Compound 238, 2-(3,4-dichlorophenyl)-1-ethyl-6-methyl-4-oxo-5-(3-phenoxyphenyl) pyridine-3-carboxylic acid] | 0 | 0 | 0 | 0 | 1 (1=0-20%) | 1 (1=0-20%) | 4 (4=61-80%) | 1 (1=0-20%) | 3 (3=41-60%) | 0 | 0 | –
CCn1c(C)c(-c2ccnn2C)c(=O)c(C(=O)O)c1-c1ccc(Cl)c(Cl)c1 [Compound 241, 2-(3,4-dichlorophenyl)-1-ethyl-6-methyl-5-(2-methylpyrazol-3-yl)-4-oxo-pyridine-3-carboxylic acid] | 5 (5=81-100%) | 3 (3=41-60%) | 1 (1=0-20%) | 3 (3=41-60%) | 4 (4=61-80%) | 3 (3=41-60%) | 5 (5=81-100%) | 3 (3=41-60%) | 5 (5=81-100%) | 2 (2=21-40%) | 5 (5=81-100%) | –
